Test [1] has as its target T1, mImpα1ΔIBB (Mus musculus, UniProt P52293).
T1 construct: His; made in house
Put plainly: Fluorescence polarization, direct binding of FITC-labeled pol β NLS peptide. Set-up: species or system murine. To be noted: abstract, peptide corresponding to pol β residues 2–13. From the text:
The fluorescein-labeled pol β NLS peptide: S^3[…]^14-Lys(FITC), used for fluorescence polarization assays, was obtained from Genscript at a purity level of > 90%. Methyl methanesulfonate (MMS) was from Sigma-Aldrich. Following a strategy used previously ([61]), we studied a pol β complex with a double-hairpin that forms a one-nucleotide gapped DNA substrate with the following sequence: 5΄-^[…]-3΄ (underlined nucleotide is in the gap). The oligonucleotide was from Oligos Etc., Wilsonville, OR, USA. The non-hydrolyzable deoxynucleoside triphosphate 2΄-deoxyadenosine-5΄-[(α,β)-methyleno]triphosphate (dAPCPP) was obtained from Jena Bioscience.
His-tagged mImpα1 with the Importin β binding domain (IBB) deleted (mImpα1ΔIBB) and its major pocket variant (mImpα1ΔIBB[W184R/W231R]) were prepared as described previously ([56]). […] Protein concentrations were determined by the Edelhoch procedure ([63]).
(§1) Apparent peptide dissociation constants were determined based on fluorescence polarization measurements using the fluorescein-labeled pol β NLS peptide as previously described ([56]). The binding constants for the interaction of pol β lyase domain with the Importin α constructs were determined by displacement of the FITC-labeled NLS peptide using a competition assay as previously described ([56]).

The target in test [2] is T2, hImpα5ΔIBB (Homo sapiens, UniProt P52294).
T2 construct: human Importin α5, corresponding to residues 66–512, (hImpα5ΔIBB); His (C)
T2 sequence (P52294 66-512, stated change not applied): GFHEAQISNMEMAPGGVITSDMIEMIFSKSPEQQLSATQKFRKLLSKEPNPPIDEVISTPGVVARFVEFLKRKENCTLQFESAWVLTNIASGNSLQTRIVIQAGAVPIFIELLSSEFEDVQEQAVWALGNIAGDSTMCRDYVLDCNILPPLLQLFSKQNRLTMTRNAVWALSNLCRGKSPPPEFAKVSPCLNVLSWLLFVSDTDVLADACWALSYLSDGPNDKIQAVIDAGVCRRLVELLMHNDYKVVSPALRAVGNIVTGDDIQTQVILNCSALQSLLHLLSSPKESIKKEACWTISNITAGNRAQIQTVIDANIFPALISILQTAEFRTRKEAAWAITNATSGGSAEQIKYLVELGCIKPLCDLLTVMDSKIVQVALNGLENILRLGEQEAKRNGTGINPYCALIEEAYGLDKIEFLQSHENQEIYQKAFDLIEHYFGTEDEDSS
Briefly: Analytical gel filtration of lyase domain / hImpα5ΔIBB mixtures. In kind it is binding. Conditions: 2-fold excess lyase domain, Superdex 200 10/300 GL, 1 ml/min, 20 mM HEPES, 125 mM NaCl, 5 mM DTT, 1 mM EDTA, pH 7.4. The protocol: (§2) For an initial assessment of binding, a sample of mImpα1ΔIBB was mixed with a 2.8-fold excess of pol β lyase domain and the sample was eluted on a HiLoad 26/60 Superdex 200 column (GE Healthcare) with a buffer containing 20 mM Tris-HCl, pH 7.8, 125 mM NaCl, 2 mM DTT, 1 mM ethylenediaminetetraacetic acid. For the analytical gel filtration experiments, hImpα5ΔIBB was mixed with 2-fold excess of wild-type or the NLS variant pol β(R4S,K5S) lyase domain and the samples were eluted on a Superdex 200 10/300 GL column (GE Healthcare) with a buffer containing 20 mM HEPES, 125 mM NaCl, 5mM DTT, 1mM ethylenediaminetetraacetic acid, pH 7.4.
Supplementary Figure S4. Interaction of the pol β lyase domain with Impα5. Analytical gel filtration experiments performed on mixtures of hImpa5DIBB and either wild-type or pol b(R4S,K5S) lyase domain.
For these experiments, hImpa5DIBB was mixed with 2-fold excess of wild-type or the NLS variant pol b(R4S,K5S) lyase domain and the samples were eluted at a flow rate of 1 ml/min on a Superdex 200 10/300 GL column (GE Healthcare) with a buffer containing 20 mM HEPES, 125 mM NaCl, 5mM DTT, […]
than Impa5DIBB alone; C) a mixture of Impa5DIBB with pol b(R4S,K5S) lyase domain elutes as two […]

The test system of test [3] is mImpα1ΔIBB. Briefly: 1H-15N HSQC NMR binding study. Details: species or system murine. Conditions: 130 μM protein, equal concentration mImpα1ΔIBB; 50 mM Tris-d11 pH 7.6, 150 mM KCl; 25°C. The protocol:
For the mImpα1ΔIBB binding experiments, the samples contained 0.13 mM U-[^2H,^15N]pol β and 0.13 mM mImpα1ΔIBB in a buffer consisting of 50 mM Tris-d11 (pH 7.6), 150 mM KCl, 1 mM CDTA, 1 mM dithiothreitol (DTT), 0.1 mM AEBSF, 0.04% NaN3 and 50 μM DSS as an internal chemical shift standard, with 10% D2O for ^1H-^15N HSQC experiments and 100% D2O for ^1H-^13C HSQC experiments. For studies of the effects of the R4S,K5S mutation on pol β structure and function, the [methyl-^13C]methionine-labeled pol β samples contained 0.1 mM pol β or the NLS-variant in the above 100% D2O buffer along with 0.11 mM of a 1-nucleotide gapped double-hairpin DNA substrate and 0.14 mM of the non-hydrolyzable nucleoside triphosphate substrate dAPCPP. Nuclear magnetic resonance (NMR) experiments were performed at 25°C on a Varian UNITY INOVA 600 or 800 MHz NMR spectrometer, using a 5 mm Varian ^1H{^13C,^15N} triple-resonance room-temperature or Cold Probe, equipped with actively shielded Z-gradients. The ^1H-^13C HSQC spectra were acquired using Varian's gChsqc sequence. The spectra were processed using NMRPipe version 2.1 ([64]) and analyzed using NMRView version 5.0.4 ([65]). All spectra were processed using squared cosine bell apodization functions in all dimensions and forward-backward linear prediction in the indirect dimension ([66]).
Figure 1. […]

For test [4], the target named is T2, hImpα5ΔIBB. Put plainly: Ligand displacement (competition) of FITC-labeled NLS peptide by lyase domain. The test is classed as binding. Conditions: relative to value with mImpα1ΔIBB. How it is done: His-tagged mImpα1 with the Importin β binding domain (IBB) deleted (mImpα1ΔIBB) and its major pocket variant (mImpα1ΔIBB[W184R/W231R]) were prepared as described previously ([56]). The minor binding pocket double mutant (mImpα1ΔIBB[W357R/W399R]) was created using the QuikChange kit (Agilent). C-terminal His-tagged human Importin α5, corresponding to residues 66–512, (hImpα5ΔIBB) was purchased from Genscript and cloned into the pET30 expression vector. All clones were sequence verified. mImpα1ΔIBB[W357R/W399R] and hImpα5ΔIBB were expressed and purified by the IMAC and gel filtration protocol previously described ([56]). Protein concentrations were determined by the Edelhoch procedure ([63]).
as §1
Figure 3. Binding of the pol β lyase domain to mImpα1ΔIBB and hImpα5ΔIBB. […] The initial fluorescence polarization value corresponds to the fraction of NLS peptide complexed with Impα, so that 100 would correspond to a fully complexed peptide. […]

Test [5] concerns mImpα1ΔIBB. Briefly: Gel filtration of lyase domain / mImpα1ΔIBB mixture. The test is classed as binding, murine. Conditions: 2.8-fold excess lyase domain, HiLoad 26/60 Superdex 200, 20 mM Tris-HCl pH 7.8, 125 mM NaCl, 2 mM DTT, 1 mM EDTA. How it is done:
as §2
Supplementary Figure S2. Interaction of pol β lyase domain with mImpα1DIBB. A sample of mImpα1DIBB was mixed with 2.8-fold excess of pol b lyase domain and the sample was eluted on a HiLoad 26/60 Superdex 200 column (GE Healthcare) with a buffer containing 20 mM Tris-HCL, pH 7.8, […]
125 mM NaCl, 2 mM DTT, 1 mM EDTA. […]
which contain both proteins while the excess pol b lyase domain elutes in fractions 41-43.
(1 picture or pasted object on this page, not shown here)

Peptide text beside a SMILES is read from it. * marks the point of attachment. FITC = O=C1OC2(c3ccc(O)cc3Oc3cc(O)ccc32)c2ccc(NC(=S)*)cc21

As to `CC(C)C[C@H](NC(=O)[C@@H](NC(=O)[C@H](CCC(=O)O)NC(=O)[C@H](CCC(N)=O)NC(=O)[C@@H]1CCCN1C(=O)[C@H](C)NC(=O)[C@H](CCCCN)NC(=O)[C@H](CCCNC(=N)N)NC(=O)[C@H](CCCCN)NC(=O)[C@@H](N)CO)[C@@H](C)O)C(=O)N[C@@H](CC(N)=O)C(=O)NCC(=O)NCC(=O)N[C@@H](CCCCNC(=S)Nc1ccc2c(c1)C(=O)OC21c2ccc(O)cc2Oc2cc(O)ccc21)C(=O)O` (H-SKRKAPQETLNGGK(FITC)-OH), the “Kd (in words)” value on mImpα1ΔIBB [1] is listed as “low micromolar Kd”.
In the case of “Pol β lyase domain: N-terminal lyase domain of pol β (residues 2–87)”, the entries for the “complex formation by analytical gel filtration” value in the test with hImpα5ΔIBB [2] (listed as pol b lyase domain) and with hImpα5ΔIBB [2] (listed as wild-type lyase domain) were “a complex of Impa5DIBB with pol b lyase domain elutes earlier” and “does elute as a complex”, respectively. Further, the “effect of mImpα1ΔIBB on 1H-15N HSQC resonances” value with mImpα1ΔIBB [3] is given as “broadened lyase domain amide resonances”. Also, the “increase in affinity, hImpα5ΔIBB vs mImpα1ΔIBB” value in the test with hImpα5ΔIBB [4] turned out to be 8 fold. The “complex formation by gel filtration” value was “indicated an interaction between the two proteins” in the test with mImpα1ΔIBB [5] and “the complex elutes in fractions 28-32” in the test with mImpα1ΔIBB [5] (listed as pol b lyase domain).

The record behind these values is article PMC5389473, “DNA polymerase β contains a functional nuclear localization signal at its N-terminus” (Nucleic Acids Research, 2016).
